Experimental data published in patent US10640497B2, “Microbiocidal oxadiazole derivatives” (SYNGENTA PARTICIPATIONS AG, priority 2015, dated 2020).

What was measured:
[1] = system: Puccinia recondita f. sp. tritici; experiment: Fungicidal activity against Puccinia recondita f. sp. tritici, wheat, leaf disc preventative (brown rust); type: in vivo; settings: foliar, wheat leaf segments, preventative (inoculated 1 day after application), 7-9 days after application, compared to untreated control
Protocol: (§1) Leaf disks or leaf segments of various plant species are cut from plants grown in a greenhouse. The cut leaf disks or segments are placed in multiwell plates (24-well format) onto water agar. The leaf disks are sprayed with a test solution before (preventative) or after (curative) inoculation. Compounds to be tested are prepared as DMSO solutions (max. 10 mg/ml) which are diluted to the appropriate concentration with 0.025% Tween20 just before spraying. The inoculated leaf disks or segments are incubated under defined conditions (temperature, relative humidity, light, etc.) according to the respective test system. A single evaluation of disease level is carried out 3 to 14 days after inoculation, depending on the pathosystem. Percent disease control relative to the untreated check leaf disks or segments is then calculated. Wheat leaf segments cv. Kanzler are placed on agar in multiwell plates (24-well format) and sprayed with the formulated test compound diluted in water. The leaf segments are inoculated with a spore suspension of the fungus 1 day after application. The inoculated leaf segments are incubated at 19° C. and 75% rh under a light regime of 12 h light/12 h darkness in a climate cabinet and the activity of a compound is assessed as percent disease control compared to untreated when an appropriate level of disease damage appears in untreated check leaf segments (7-9 days after application).

[2] = system: Glomerella lagenarium (Colletotrichum lagenarium); experiment: Fungicidal activity against Glomerella lagenarium (Colletotrichum lagenarium), liquid culture, cucumber, preventative (anthracnose); type: cell-based; settings: Colletotrichum orbiculare, liquid culture (PDB), growth inhibition measured photometrically 3-4 days after application, compared to untreated control
Protocol: Mycelia fragments or conidia suspensions of a fungus, prepared either freshly from liquid cultures of the fungus or from cryogenic storage, are directly mixed into nutrient broth. DMSO solutions of the test compound (max. 10 mg/ml) is diluted with 0.025% Tween20 by a factor of 50 and 10 μl of this solution is pipetted into a microtiter plate (96-well format). The nutrient broth containing the fungal spores/mycelia fragments is then added to give an end concentration of the tested compound. The test plates are incubated in the dark at 24° C. and 96% relative humidity. The inhibition of fungal growth is determined photometrically after 2 to 7 days, depending on the pathosystem, and percent antifungal activity relative to the untreated check is calculated. Conidia of the fungus from cryogenic storage are directly mixed into nutrient broth (PDB potato dextrose broth). After placing a (DMSO) solution of test compound into a microtiter plate (96-well format), the nutrient broth containing the fungal spores is added. The test plates are incubated at 24° C. and the inhibition of growth is measured photometrically 3-4 days after application.

[3] = system: Puccinia recondita f. sp. tritici; experiment: Fungicidal activity against Puccinia recondita f. sp. tritici, wheat, leaf disc curative (brown rust); type: in vivo; settings: foliar, 144 h, wheat leaf segments, curative (applied 1 day after inoculation), 6-8 days after application, compared to untreated control
Protocol: as §1, with “plates (24-well format). The leaf” for “plates (24-well format) and sprayed with the formulated test compound diluted in water. The leaf”, “of the fungus. Plates are stored in darkness at 19° C. and 75% rh. The formulated test compound diluted in water is applied 1 day” for “of the fungus 1 day”, “day after inoculation. The leaf” for “day after application. The inoculated”, “inoculation. The leaf segments” for “application. The inoculated leaf segments”, “leaf segments (6-8 days after” for “leaf segments (7-9 days after”

Structure (SMILES)	pest or weed control at 200 ppm [1]	inhibition of growth at 20 ppm [2]	pest or weed control at 200 ppm [3]
O=C1CCCN1Cc1ccc(-c2noc(C(F)(F)F)n2)cn1 [Compound A-28, 1-[[5-[5-(trifluoromethyl)-1,2,4-oxadiazol-3-yl]-2-pyridyl]methyl]pyrrolidin-2-one]	≥ 80%	≥ 80%	≥ 80%
COCC(=O)N1CCN(Cc2ccc(-c3noc(C(F)(F)F)n3)cc2)C(=O)C1 [Compound A-31, 4-(2-methoxyacetyl)-1-[[4-[5-(trifluoromethyl)-1,2,4-oxadiazol-3-yl]phenyl]methyl]piperazin-2-one]	≥ 80%	≥ 80%	≥ 80%
O=C1CNCCN1Cc1ccc(-c2noc(C(F)(F)F)n2)cc1 [Compound A-36, 1-[[4-[5-(trifluoromethyl)-1,2,4-oxadiazol-3-yl]phenyl]methyl]piperazin-4-ium-2-one; chloride]	≥ 80%		
O=C1CCCCN1Cc1ccc(-c2noc(C(F)(F)F)n2)c(F)c1 [Compound A-44, 1-[[3-fluoro-4-[5-(trifluoromethyl)-1,2,4-oxadiazol-3-yl]phenyl]methyl]piperidin-2-one]	≥ 80%	≥ 80%	≥ 80%
O=C1OCCN1Cc1ccc(-c2noc(C(F)(F)F)n2)cc1 [Compound A-45, 3-[[4-[5-(trifluoromethyl)-1,2,4-oxadiazol-3-yl]phenyl]methyl]oxazolidin-2-one]	≥ 80%	≥ 80%	≥ 80%
CC1(C)CCCN(Cc2ccc(-c3noc(C(F)(F)F)n3)nc2)C1=O [Compound A-52, 3,3-dimethyl-1-[[6-[5-(trifluoromethyl)-1,2,4-oxadiazol-3-yl]-3-pyridyl]methyl]piperidin-2-one]		≥ 80%	
O=C1CNCC(=O)N1Cc1ccc(-c2noc(C(F)(F)F)n2)cc1 [Compound A-61, 1-[[4-[5-(trifluoromethyl)-1,2,4-oxadiazol-3-yl]phenyl]methyl]piperazin-4-ium-2,6-dione; chloride]		≥ 80%	
O=C1CCCN1Cc1ccc(-c2noc(C(F)(F)F)n2)c(F)c1 [Compound A-63, 1-[[3-fluoro-4-[5-(trifluoromethyl)-1,2,4-oxadiazol-3-yl]phenyl]methyl]pyrrolidin-2-one]	≥ 80%	≥ 80%	≥ 80%
CC1(C)CON(Cc2ccc(-c3noc(C(F)(F)F)n3)c(F)c2)C1=O [Compound A-64, 2-[[3-fluoro-4-[5-(trifluoromethyl)-1,2,4-oxadiazol-3-yl]phenyl]methyl]-4,4-dimethyl-isoxazolidin-3-one]	≥ 80%	≥ 80%	
O=S1(=O)CCCN1Cc1ccc(-c2noc(C(F)(F)F)n2)cc1Cl [Compound B-2, 2-[[2-chloro-4-[5-(trifluoromethyl)-1,2,4-oxadiazol-3-yl]phenyl]methyl]-1,2-thiazolidine 1,1-dioxide]	≥ 80%	≥ 80%	
CN1CCCN(Cc2ccc(-c3noc(C(F)(F)F)n3)cc2)S1(=O)=O [Compound B-3, 2-methyl-6-[[4-[5-(trifluoromethyl)-1,2,4-oxadiazol-3-yl]phenyl]methyl]-1,2,6-thiadiazinane 1,1-dioxide]	≥ 80%	≥ 80%	≥ 80%
CN1CCCN(Cc2ccc(-c3noc(C(F)(F)F)n3)cc2Cl)S1(=O)=O [Compound B-4, 2-[[2-chloro-4-[5-(trifluoromethyl)-1,2,4-oxadiazol-3-yl]phenyl]methyl]-6-methyl-1,2,6-thiadiazinane 1,1-dioxide]		≥ 80%	
